Data published in patent publication US20110313056A1 (BIO SYNTECH CANADA INC., priority 2005, published 2011).

Legend:
[1] = literature (Voet and Voet); cited from earlier work
[2] = Glycerol 2-phosphate titration followed by 31P chemical shift and pH at different temperatures; format: physicochemical
From the text: In order to measure the variation of the polyelectrolyte ionization degree (chitosan in the present case), we performed NMR measurements of the glycerol 2-phosphate (GP) ^31P chemical shift. Glycerol 2-phosphate titration curve at different temperatures allow determination pKa2^GP, δa and δb by fitting pH and δ values of the following equation
where δa and δb are the chemical shifts of ^31P in the monovalent and divalent form of GP, respectively.
This last equation is valid for ideal solutions where the proton activity coefficient is γH+=1.
We dissolve 0.594 g of glycerol 2-phosphate (Sigma, No. Cat. G-9891, 297 g/mol with 4.5 moles H2O per mole of GP) in 18 mL H2Odd and 2 mL D2O (Aldrich, No. Cat. 15,188-2-250G) in a graduate cylinder giving a CGP concentration of 100 mM. A total of 11 solutions (see Table 3) with different ionization degree are prepared from this base solution. The pH is measured with an Accumet meter, model 20 using an electrode 9803BN from Orion.

[3] = Diffusion of GP from chitosan gel into DMEM bath, phosphorus by Kjeldahl digestion; format: physicochemical; settings: GP concentration in DMEM bath over time vs free diffusion model
From the text: Here we provide evidence that supports the notion that there is no ionic cross-link between the polyelectrolyte and the counter-ion, using gels kept in contact with a bath solution to allow the weak electrolyte (glycerol 2-phosphate in this example) to diffuse out of the gel. […] A simple diffusion model predicted the diffusion profile and allowed the calculation of the diffusion constant in the gel (see section “Diffusion from a gel to a washing solution”) showing an absence of binding with the chitosan gel component.
A 7.5 mL solution (see Table 6) containing chitosan (2.93% w/v Protosan UP CL 213) was placed on ice at 4° C. To this solution, we added 2.25 mL glucosamine (2.16% w/v) drop by drop every 15 seconds followed by 1 mL glycerol 2-phosphate (GP) (33.3% w/v) and 2 mL of hydroxyethyl cellulose. […]
Samples of gel were then taken for analysis of phosphorus content and additional gel samples also taken following three subsequent washes in DMEM for 60 minutes each. Phosphorus was quantified using the established method of Kjeldahl digestion (Liao, N., Total phosphorus in Kjeldahl digests, Milwaukee, Wis.: LACHAT Instruments, 25 p., QuickChem Method 10-115-01-1-C, 1993) followed by the analysis of the absorption at 880 nm of the PO4^3− complex with ammonium molybdate and antimony potassic tartrate.
Concentration cp^m is the measured concentration from the absorption at 880 nm. […]

O=P(O)(O)O [phosphate, inorganic phosphate]
Ka1^P [1]: approximately 2.2
Ka2^P [1]: ~6.8

O=P(O)(O)OC(CO)CO [GP, glycerol 2-phosphate]
pKa2^GP ([2]; 5 ° C.): 6.13
pKa2^GP ([2]; 15 ° C.): 6.14
pKa2^GP ([2]; 25 ° C.): 6.16
pKa2^GP ([2]; 37 ° C.): 6.16
binding of GP to the components of the gel [3]: lack of binding
